Data as given in paper PMC5218480 (PLoS ONE, 2017).

Test system: MV-4-11 cells
Experiment: Gene expression microarray analysis (Affymetrix PrimeView) and GSEA
Assay type: cell-based, human
Set-up: RFU PODN (11730768_x_at) / Fold change /veh PODN (11730768_x_at) / RFU LINC00158 (11744669_a_at) / Fold change /veh LINC00158 (11744669_a_at) / RFU DUSP10 (11751237_a_at) / Fold change /veh DUSP10 (11751237_a_at) / RFU ID3 (11757404_x_at) / Fold change /veh ID3 (11757404_x_at) / RFU PLEKHG5 (11737974_s_at) / Fold change /veh PLEKHG5 (11737974_s_at) / RFU LRRC4B (11730491_at) / Fold change /veh LRRC4B (11730491_at) / RFU GIMAP4 (11747438_a_at) / Fold change /veh GIMAP4 (11747438_a_at) / RFU KRT8 (11758183_x_at) / Fold change /veh KRT8 (11758183_x_at) / RFU CNN1 (11734310_a_at) / Fold change /veh CNN1 (11734310_a_at) / RFU VPS37D (11726825_at) / Fold change /veh VPS37D (11726825_at) / RFU C10orf10 (11716522_x_at) / Fold change /veh C10orf10 (11716522_x_at) / RFU KIR2DL2 /// KIR2DL4 /// KIR2DL5A /// KIR2DL5B /// KIR2DS1 /// KIR2DS2 /// KIR2DS3 /// KIR2DS4 /// KIR3DL3 /// KIR3DL3 /// KIR3DS1 (11738374_at) / Fold change /veh KIR2DL2 /// KIR2DL4 /// KIR2DL5A /// KIR2DL5B /// KIR2DS1 /// KIR2DS2 /// KIR2DS3 /// KIR2DS4 /// KIR3DL3 /// KIR3DL3 /// KIR3DS1 (11738374_at) / RFU C1QL1 (11718748_at) / Fold change /veh C1QL1 (11718748_at) / RFU TMPRSS4 (11747572_a_at) / Fold change /veh TMPRSS4 (11747572_a_at) / RFU HAMP (11756126_x_at) / Fold change /veh HAMP (11756126_x_at) / RFU RNFT2 (11725882_a_at) / Fold change /veh RNFT2 (11725882_a_at) / RFU NR4A2 (11747474_a_at) / Fold change /veh NR4A2 (11747474_a_at) / RFU ABCC12 (11746883_a_at) / Fold change /veh ABCC12 (11746883_a_at) / RFU TMEM136 (11760407_x_at) / Fold change /veh TMEM136 (11760407_x_at) / RFU CLDN22 /// WWC2 (11732394_at) / Fold change /veh CLDN22 /// WWC2 (11732394_at) / RFU HLA-DPB1 (11760878_x_at) / Fold change /veh HLA-DPB1 (11760878_x_at) / RFU SPINT1 (11716480_a_at) / Fold change /veh SPINT1 (11716480_a_at) / RFU GAP43 (11754022_s_at) / Fold change /veh GAP43 (11754022_s_at) / RFU A4GNT (11735810_at) / Fold change /veh A4GNT (11735810_at) / RFU PRB3 (11715151_x_at) / Fold change /veh PRB3 (11715151_x_at) / RFU TUBB4B (11761932_at) / Fold change /veh TUBB4B (11761932_at) / RFU CAPN14 (11732068_a_at) / Fold change /veh CAPN14 (11732068_a_at) / RFU TMCC2 (11721928_a_at) / Fold change /veh TMCC2 (11721928_a_at) / RFU IRGQ (11745062_a_at) / Fold change /veh IRGQ (11745062_a_at) / RFU FAM174B (11720279_a_at) / Fold change /veh FAM174B (11720279_a_at) / RFU TMPRSS4 (11748680_a_at) / Fold change /veh TMPRSS4 (11748680_a_at) / RFU FAM212B (11763350_a_at) / Fold change /veh FAM212B (11763350_a_at) / RFU PLEKHG5 (11743358_a_at) / Fold change /veh PLEKHG5 (11743358_a_at) / RFU ZSCAN30 (11745921_a_at) / Fold change /veh ZSCAN30 (11745921_a_at) / RFU CMKLR1 (11741424_a_at) / Fold change /veh CMKLR1 (11741424_a_at) / RFU LOC101060620 /// MAPK8IP1 (11723275_at) / Fold change /veh LOC101060620 /// MAPK8IP1 (11723275_at) / RFU SPTSSB (11747773_x_at) / Fold change /veh SPTSSB (11747773_x_at) / RFU PRSS12 (11739890_at) / Fold change /veh PRSS12 (11739890_at) / RFU BIN1 (11741810_x_at) / Fold change /veh BIN1 (11741810_x_at) / RFU WNT11 (11732464_a_at) / Fold change /veh WNT11 (11732464_a_at) / RFU C10orf10 (11716521_a_at) / Fold change /veh C10orf10 (11716521_a_at) / RFU C5orf56 (11738089_at) / Fold change /veh C5orf56 (11738089_at) / RFU CYB561 (11721691_x_at) / Fold change /veh CYB561 (11721691_x_at) / RFU ANKRD19P (11752326_a_at) / Fold change /veh ANKRD19P (11752326_a_at) / RFU OR2T12 /// OR2T33 /// OR2T8 (11738714_s_at) / Fold change /veh OR2T12 /// OR2T33 /// OR2T8 (11738714_s_at) / RFU VCAN (11748164_a_at) / Fold change /veh VCAN (11748164_a_at) / RFU JSRP1 (11732532_at) / Fold change /veh JSRP1 (11732532_at) / RFU KRTAP10-11 (11738290_x_at) / Fold change /veh KRTAP10-11 (11738290_x_at) / RFU MYO3A (11730013_a_at) / Fold change /veh MYO3A (11730013_a_at) / RFU EBF3 (11725865_a_at) / Fold change /veh EBF3 (11725865_a_at) / RFU CAMK2N1 (11719241_x_at) / Fold change /veh CAMK2N1 (11719241_x_at) / RFU C5orf56 (11738088_a_at) / Fold change /veh C5orf56 (11738088_a_at) / RFU OLFML3 (11715873_a_at) / Fold change /veh OLFML3 (11715873_a_at) / RFU LOC100653217 /// NTM (11731650_a_at) / Fold change /veh LOC100653217 /// NTM (11731650_a_at) / RFU MAPK11 (11762145_a_at) / Fold change /veh MAPK11 (11762145_a_at) / RFU FIZ1 (11724087_x_at) / Fold change /veh FIZ1 (11724087_x_at) / RFU OASL (11726364_x_at) / Fold change /veh OASL (11726364_x_at) / RFU SOX15 (11748057_x_at) / Fold change /veh SOX15 (11748057_x_at) / RFU CD79A (11719716_a_at) / Fold change /veh CD79A (11719716_a_at) / RFU HIST1H1D (11736915_at) / Fold change /veh HIST1H1D (11736915_at) / RFU CASKIN2 (11723855_a_at) / Fold change /veh CASKIN2 (11723855_a_at) / RFU LOC730098 (11760151_x_at) / Fold change /veh LOC730098 (11760151_x_at) / RFU OR4N2 (11742367_at) / Fold change /veh OR4N2 (11742367_at) / RFU PRRT2 (11749266_a_at) / Fold change /veh PRRT2 (11749266_a_at) / RFU SNX32 (11753110_a_at) / Fold change /veh SNX32 (11753110_a_at) / RFU CDHR5 (11726645_a_at) / Fold change /veh CDHR5 (11726645_a_at) / RFU RCAN1 (11760418_a_at) / Fold change /veh RCAN1 (11760418_a_at) / RFU FAM167A (11723789_a_at) / Fold change /veh FAM167A (11723789_a_at) / RFU FAM26E (11764081_at) / Fold change /veh FAM26E (11764081_at) / RFU ISYNA1 (11749810_s_at) / Fold change /veh ISYNA1 (11749810_s_at) / RFU ACY1 (11761880_at) / Fold change /veh ACY1 (11761880_at) / RFU 11764098_at / Fold change /veh 11764098_at / RFU SAMD14 (11745864_x_at) / Fold change /veh SAMD14 (11745864_x_at) / RFU NPB (11741838_a_at) / Fold change /veh NPB (11741838_a_at) / RFU TMPRSS6 (11731388_a_at) / Fold change /veh TMPRSS6 (11731388_a_at) / RFU KRTAP10-2 (11738614_at) / Fold change /veh KRTAP10-2 (11738614_at) / RFU ARHGAP8 /// PRR5-ARHGAP8 (11727945_x_at) / Fold change /veh ARHGAP8 /// PRR5-ARHGAP8 (11727945_x_at) / RFU KRTAP5-7 /// NADSYN1 (11734609_at) / Fold change /veh KRTAP5-7 /// NADSYN1 (11734609_at) / RFU RASL12 (11751679_a_at) / Fold change /veh RASL12 (11751679_a_at) / RFU CDKN2B (11736163_a_at) / Fold change /veh CDKN2B (11736163_a_at) / RFU PRF1 (11729649_at) / Fold change /veh PRF1 (11729649_at) / RFU, ZNF638 /// ZNF638-IT1 / Fold change vs veh, ZNF638 /// ZNF638-IT1 / RFU, PANK3 / Fold change vs veh, PANK3 / RFU, SH3YL1 / Fold change vs veh, SH3YL1 / RFU, ZEB2 / Fold change vs veh, ZEB2 / RFU, NRIP1 / Fold change vs veh, NRIP1 / RFU, PTTG1IP / Fold change vs veh, PTTG1IP / RFU, CAPN2 / Fold change vs veh, CAPN2 / RFU, MED14 / Fold change vs veh, MED14 / RFU, SNORA58 / Fold change vs veh, SNORA58 / RFU, C1orf63 / Fold change vs veh, C1orf63 / RFU, LRRFIP1 / Fold change vs veh, LRRFIP1 / RFU, NDUFAF7 / Fold change vs veh, NDUFAF7 / RFU, SLC12A2 / Fold change vs veh, SLC12A2 / RFU, IBTK / Fold change vs veh, IBTK / RFU, ESF1 / Fold change vs veh, ESF1 / Fold change vs veh, TMEM50B / RFU, TAOK1 / Fold change vs veh, TAOK1 / RFU, ACBD3 / Fold change vs veh, ACBD3 / RFU, TMA16 / Fold change vs veh, TMA16 / RFU, RWDD3 / Fold change vs veh, RWDD3 / RFU, BCAT1 / Fold change vs veh, BCAT1 / RFU, EDEM3 / Fold change vs veh, EDEM3 / RFU, TMEM33 / Fold change vs veh, TMEM33 / RFU, WDR75 / Fold change vs veh, WDR75 / RFU, AHCTF1 / Fold change vs veh, AHCTF1 / RFU, TFRC / Fold change vs veh, TFRC / RFU, ZDHHC17 / Fold change vs veh, ZDHHC17 / RFU, NOM1 / Fold change vs veh, NOM1 / RFU, ARL8B / Fold change vs veh, ARL8B / RFU, ZBTB11 / Fold change vs veh, ZBTB11 / RFU, TAMM41 / Fold change vs veh, TAMM41 / RFU, KIAA1704 /// LOC100996395 / Fold change vs veh, KIAA1704 /// LOC100996395 / RFU, ING1 / Fold change vs veh, ING1 / RFU, TRMT61B / Fold change vs veh, TRMT61B / RFU, FUBP3 / Fold change vs veh, FUBP3 / RFU, TP53 / Fold change vs veh, TP53 / RFU, TNKS2 / Fold change vs veh, TNKS2 / RFU, ZFP14 / Fold change vs veh, ZFP14 / RFU, ACTR2 / Fold change vs veh, ACTR2 / RFU, PPP3R1 / Fold change vs veh, PPP3R1 / RFU, PIK3R1 / Fold change vs veh, PIK3R1 / RFU, HNRNPA1 / Fold change vs veh, HNRNPA1 / RFU, RNF170 / Fold change vs veh, RNF170 / RFU, ZNF28 / Fold change vs veh, ZNF28 / RFU, RNGTT / Fold change vs veh, RNGTT / RFU, OGT / Fold change vs veh, OGT / RFU, BRD1 / Fold change vs veh, BRD1 / RFU, MARS / Fold change vs veh, MARS / RFU, ZNF655 / Fold change vs veh, ZNF655 / RFU, FAHD1 / Fold change vs veh, FAHD1 / RFU, BDP1 / Fold change vs veh, BDP1 / RFU, LRRCC1 / Fold change vs veh, LRRCC1 / RFU, ARID1A / Fold change vs veh, ARID1A / RFU, ZNF146 / Fold change vs veh, ZNF146 / RFU, ZNF330 / Fold change vs veh, ZNF330 / RFU, GPN3 / Fold change vs veh, GPN3 / RFU, C9orf123 / Fold change vs veh, C9orf123 / RFU, N4BP2L2 / Fold change vs veh, N4BP2L2 / RFU, ARFIP1 / Fold change vs veh, ARFIP1 / RFU, FAM179B / Fold change vs veh, FAM179B / RFU, BCL10 / Fold change vs veh, BCL10 / RFU, UHRF1BP1L / Fold change vs veh, UHRF1BP1L / RFU, BET1 / Fold change vs veh, BET1 / RFU, CNOT2 / Fold change vs veh, CNOT2 / RFU, ZNF268 / Fold change vs veh, ZNF268 / Fold change vs veh, ZNF507 / RFU, DGCR2 / Fold change vs veh, DGCR2 / RFU, WDSUB1 / Fold change vs veh, WDSUB1 / Fold change vs veh, HSP90B1 /// MIR3652 / RFU, ADSS / Fold change vs veh, ADSS / RFU, GK / Fold change vs veh, GK / RFU, ZNF148 / Fold change vs veh, ZNF148 / RFU, TAF9 / Fold change vs veh, TAF9 / RFU, SLC1A5 / Fold change vs veh, SLC1A5 / RFU, SLMO2 / Fold change vs veh, SLMO2 / RFU, ABCC4 / Fold change vs veh, ABCC4 / RFU, LOC101060439 /// RAP1B / Fold change vs veh, LOC101060439 /// RAP1B / RFU, RFX7 / Fold change vs veh, RFX7 / RFU, GTPBP10 / Fold change vs veh, GTPBP10 / RFU, CNEP1R1 / Fold change vs veh, CNEP1R1 / RFU, BIVM-ERCC5 /// ERCC5 / Fold change vs veh, BIVM-ERCC5 /// ERCC5 / RFU, ILF3 / Fold change vs veh, ILF3 / RFU 11762660_at / Fold change /veh 11762660_at / RFU VCAN (11757783_s_at) / Fold change /veh VCAN (11757783_s_at) / RFU DDX43 (11728927_at) / Fold change /veh DDX43 (11728927_at) / RFU KRT8 (11758188_x_at) / Fold change /veh KRT8 (11758188_x_at) / RFU NKD1 (11759106_at) / Fold change /veh NKD1 (11759106_at) / RFU SRD5A1 (11742802_a_at) / Fold change /veh SRD5A1 (11742802_a_at) / RFU TPSAB1 /// TPSB2 (11721975_s_at) / Fold change /veh TPSAB1 /// TPSB2 (11721975_s_at) / RFU GSTM3 (11746129_a_at) / Fold change /veh GSTM3 (11746129_a_at) / RFU IL23R (11737362_x_at) / Fold change /veh IL23R (11737362_x_at) / RFU TMEM51 (11727254_a_at) / Fold change /veh TMEM51 (11727254_a_at) / RFU PIWIL2 (11732686_x_at) / Fold change /veh PIWIL2 (11732686_x_at) / RFU ORM1 (11744905_x_at) / Fold change /veh ORM1 (11744905_x_at) / RFU CCDC152 (11743942_at) / Fold change /veh CCDC152 (11743942_at) / RFU ECM1 (11717891_a_at) / Fold change /veh ECM1 (11717891_a_at) / RFU IL23R (11748794_a_at) / Fold change /veh IL23R (11748794_a_at) / RFU TNFAIP8L3 (11732012_x_at) / Fold change /veh TNFAIP8L3 (11732012_x_at) / RFU MBOAT4 (11741988_at) / Fold change /veh MBOAT4 (11741988_at) / RFU 11764193_at / Fold change /veh 11764193_at / RFU TMEM53 (11763286_at) / Fold change /veh TMEM53 (11763286_at) / RFU MAGEB2 (11727129_at) / Fold change /veh MAGEB2 (11727129_at) / RFU TMEM200A (11744735_a_at) / Fold change /veh TMEM200A (11744735_a_at) / RFU CCDC152 (11751479_a_at) / Fold change /veh CCDC152 (11751479_a_at) / RFU FAM211A (11726209_a_at) / Fold change /veh FAM211A (11726209_a_at) / RFU RGS16 (11746705_a_at) / Fold change /veh RGS16 (11746705_a_at) / RFU VCAN (11755009_s_at) / Fold change /veh VCAN (11755009_s_at) / RFU RHOB (11743442_s_at) / Fold change /veh RHOB (11743442_s_at) / RFU RGS16 (11720943_a_at) / Fold change /veh RGS16 (11720943_a_at) / RFU RGS16 (11720944_at) / Fold change /veh RGS16 (11720944_at) / RFU, VPS4B / Fold change vs veh, VPS4B / RFU, CREB1 / Fold change vs veh, CREB1 / RFU, DNAJC13 / Fold change vs veh, DNAJC13 / RFU, GNAQ / Fold change vs veh, GNAQ / RFU, CDK5R1 / Fold change vs veh, CDK5R1 / RFU, ZRANB3 / Fold change vs veh, ZRANB3 / RFU, CUL4A / Fold change vs veh, CUL4A / RFU, CCNY / Fold change vs veh, CCNY / RFU, UFL1 / Fold change vs veh, UFL1 / RFU, COG3 / Fold change vs veh, COG3 / RFU, DIAPH2 / Fold change vs veh, DIAPH2 / RFU, SKA2 / Fold change vs veh, SKA2 / RFU, AFF3 / Fold change vs veh, AFF3 / RFU, LMF1 / Fold change vs veh, LMF1 / RFU, IPO11 / Fold change vs veh, IPO11 / RFU, DFFB / Fold change vs veh, DFFB / RFU, FOXP1 / Fold change vs veh, FOXP1 / RFU, CARD8 / Fold change vs veh, CARD8 / RFU, STRN3 / Fold change vs veh, STRN3 / RFU, ADK / Fold change vs veh, ADK / RFU, RASSF2 / Fold change vs veh, RASSF2 / RFU, WIPF1 / Fold change vs veh, WIPF1 / RFU, LARP1B / Fold change vs veh, LARP1B / RFU, RASA1 / Fold change vs veh, RASA1 / RFU, RB1 / Fold change vs veh, RB1 / RFU, PPFIA1 / Fold change vs veh, PPFIA1 / RFU, MAT2A / Fold change vs veh, MAT2A / RFU, CCT5 / Fold change vs veh, CCT5 / RFU, WDR92 / Fold change vs veh, WDR92 / RFU, CUX1 / Fold change vs veh, CUX1 / RFU, TTC7A / Fold change vs veh, TTC7A / RFU, TMEM135 / Fold change vs veh, TMEM135 / RFU, DEPTOR / Fold change vs veh, DEPTOR / RFU, CPM / Fold change vs veh, CPM / RFU, DNAJB6 / Fold change vs veh, DNAJB6 / RFU, CACNA2D3 / Fold change vs veh, CACNA2D3 / RFU, DTX4 / Fold change vs veh, DTX4 / RFU, TFCP2 / Fold change vs veh, TFCP2 / RFU, GMCL1 /// GMCL1P1 / Fold change vs veh, GMCL1 /// GMCL1P1 / RFU, AEBP2 / Fold change vs veh, AEBP2 / RFU, SNHG1 /// SNORD22 /// SNORD25 /// SNORD26 /// SNORD27 /// SNORD28 /// SNORD29 /// SNORD31 / Fold change vs veh, SNHG1 /// SNORD22 /// SNORD25 /// SNORD26 /// SNORD27 /// SNORD28 /// SNORD29 /// SNORD31 / Fold change (Aza/veh), C12orf56 (ProbeSet 11735607_a_at) / Fold change (ACY-1035/veh), C12orf56 (ProbeSet 11735607_a_at) / Fold change (Aza/veh), FGFR1OP (ProbeSet 11751329_s_at) / Fold change (ACY-1035/veh), FGFR1OP (ProbeSet 11751329_s_at) / Fold change (Aza/veh), VPS36 (ProbeSet 11739960_a_at) / Fold change (ACY-1035/veh), VPS36 (ProbeSet 11739960_a_at) / RFU SYPL1 (11715823_x_at) / Fold change /veh SYPL1 (11715823_x_at) / RFU IGFBP7 (11715501_s_at) / Fold change /veh IGFBP7 (11715501_s_at) / RFU REEP3 (11722064_at) / Fold change /veh REEP3 (11722064_at) / RFU IGLL1 (11728026_x_at) / Fold change /veh IGLL1 (11728026_x_at): dose or concentration left out as unconfirmed
Conditions: ProbeSet 11725100_s_at; LIST B

Compound: Nc1ccc(-c2cccs2)cc1NC(=O)c1ccc2c(c1)cc(C1CC1)n2CCN1CCOCC1 [ACY-1035]
- Fold change vs veh, ESF1: 0.88
